Assay results taken from patent publication US20150119373A1, “NOVEL BETULINIC ACID DERIVATIVES AS HIV INHIBITORS” (HETERO RESEARCH FOUNDATION, priority 2012, published 2015).
Where two headings read alike, the source gives them in different places.

Columns and labels:
HIV-1 strain 92HT599 = assay: Antiviral activity: p24 estimation in MT2 cells infected with HIV-1 strain 92HT599; type: cell-based; conditions: for inhibition at 0.1 µM: read-out: Antiviral activity % inhibition 100 nM; for inhibition at 1 µM: read-out: Antiviral activity % inhibition 1000 nM
Procedure: MT2 cells were infected with HIV-1 strain 92HT599 (10 TCID 50/30000 cells). The infected cells were plated at the concentration of […] cells per well in 96 well plate. Test compound was added to the micro plate in defined format with the final concentration of DMSO (vehicle) is not more than 1%. Incubation was carried out in CO2 incubator for ˜96 hours for viral infection. At the end of incubation period an aliquot from each well was taken for p24 estimation. The quantitation of p24 is an index for antiviral activity of the compound. Percent inhibition was calculated with reference to control values (vehicle controls).
p-24 estimation was carried out using Advance biosciences kit as per the procedure detailed by supplier.

[1] = Cyto-toxicity assay (MTT) in MT2 cells without virus; type: cell-based; conditions: human
Procedure: For cyto-toxicity assay the same amount of MT2 cells as in antiviral assay without virus was added to the 96 well plates. The cyto-toxicity was measured using MTT reagent in parallel with p24 estimation. The percent viability is calculated in comparison with vehicle control.

[2] = Single dose oral pharmacokinetic study in mice; type: in vivo; conditions: Oral PK @ 30 mg/ kg dose in mice (Table 6)
Procedure: The test item was administered through oral route to animals (rat/mice) at 30 mg/kg dose in a suitable vehicle at 10 ml/kg dose volume. Blood samples (˜50 uL at each time point) were collected from retro-orbital plexus using K3 EDTA as anticoagulant in eppendorf tubes at defined time intervals under light ether anesthesia. The samples were centrifuged at 3500×g to separate plasma and stored at −80° C. until analysis.
Sample analysis: Test samples were analyzed using LC-MS-MS after developing fit-for-purpose method for each of test compound.

[3] = Human immunodeficiency virus 1, 100 nM, MT2 cells, HIV-1 92HT599, ~96 hours, p24
[4] = Human immunodeficiency virus 1, 1000 nM, MT2 cells, HIV-1 92HT599, ~96 hours, p24
[5] = Human immunodeficiency virus 1, MT2, 96 h

| Structure (SMILES) | inhibition at 0.1 µM (HIV-1 strain 92HT599; [3]) | inhibition at 1 µM (HIV-1 strain 92HT599; [4]) | viability at 100 nM [1] | viability at 1000 nM [1] | other results |
| --- | --- | --- | --- | --- | --- |
| CC(C)(CC(=O)O[C@H]1CC[C@]2(C)[C@H]3CC[C@@H]4[C@H]5[C@H](C6(C)CC6)CC[C@]5(C(=O)N5CCC(C#N)(c6ccccc6)CC5)CC[C@@]4(C)[C@]3(C)CC[C@H]2C1(C)C)C(=O)O [Example 56, 4-((1R,3aS,5aR,5bR,7aR,9S,11aR,11bR,13aR,13bR)-3a-(4-cyano-4-phenylpiperidine-1-carbonyl)-5a,5b,8,8,11a-pentamethyl-1-(1-methylcyclopropyl)icosahydro-1H-cyclopenta[a]chrysen-9-yloxy)-2,2-dimethyl-4-oxobutanoic acid] | 76% | 99% | 83% | 80% | Tlast [2]: 24 h; AUC(0-inf) ([2]; mouse, plasma): 185 µg·h/mL; Cmax ([2]; mouse, plasma): 5900 ng/mL; Tmax ([2]; mouse, plasma): 7 h; AUC(0-t) ([2]; mouse, plasma, read-out: AUCt): 95.5 µg·h/mL |
| C=C(C)[C@@H]1CC[C@]2(c3nnc(-c4cccnc4)o3)CC[C@]3(C)[C@H](CC[C@@H]4[C@@]5(C)CC[C@H](OC(=O)[C@H]6[C@@H](CC(=O)O)C6(C)C)C(C)(C)[C@@H]5CC[C@]43C)[C@@H]12 [Example 6, 2-((1R,3S)-2,2-dimethyl-3-(((1R,3aS,5aR,5bR,7aR,9S,11aR,11bR,13aR,13bR)-5a,5b,8,8,11a-pentamethyl-1-(prop-1-en-2-yl)-3a-(5-(pyridin-3-yl)-1,3,4-oxadiazol-2-yl)icosahydro-1H-cyclopenta[a]chrysen-9-yloxy)carbonyl)cyclopropyl)aceticacid] | 85% | 92% | 94% | 87% | – |
| CC(C)(C)OC(=O)N1CCN(C(=O)[C@]23CC[C@@H](C4(C)CC4)[C@@H]2[C@H]2CC[C@@H]4[C@@]5(C)CC[C@H](OC(=O)CC(C)(C)C(=O)O)C(C)(C)[C@@H]5CC[C@@]4(C)[C@]2(C)CC3)CC1 [Example 37] | 30% | 99% | 73% | 72% | – |
| CCN1CCN(C2CCN(C(=O)[C@]34CC[C@@H](C5(C)CC5)[C@@H]3[C@H]3CC[C@@H]5[C@@]6(C)CC[C@H](OC(=O)[C@H]7C[C@@H](C(=O)O)C7(C)C)C(C)(C)[C@@H]6CC[C@@]5(C)[C@]3(C)CC4)CC2)CC1 [Example 46, (1R,3S)-3-((((1R,3aS,5aR,5bR,7aR,9S,11aR,11bR,13aR,13bR)-3a-(4-(4-ethylpiperazin-1-yl)piperidine-1-carbonyl)-5a,5b,8,8,11a-pentamethyl-1-(1-methylcyclopropyl)icosahydro-1H-cyclopenta[a]chrysen-9-yl)oxy)carbonyl)-2,2-dimethylcyclobutane-1-carboxylic acid] | 100% | 100% | 100% | 90% | – |
| COCCOCCOC1CCN(C(=O)[C@]23CC[C@@H](C4(C)CC4)[C@@H]2[C@H]2CC[C@@H]4[C@@]5(C)CC[C@H](OC(=O)[C@H]6C[C@@H](C(=O)O)C6(C)C)C(C)(C)[C@@H]5CC[C@@]4(C)[C@]2(C)CC3)CC1 [Example 44, (1R,3S)-3-((((1R,3aS,5aR,5bR,7aR,9S,11aR,11bR,13aR,13bR)-3a-(4-(2-(2-methoxyethoxyl)ethoxy)piperidine-1-carbonyl)-5a,5b,8,8,11a-pentamethyl-1-(1-methylcyclopropyl)icosahydro-1H-cyclopenta[a]chrysen-9-yl)oxy)carbonyl)-2,2-dimethylcyclobutane-1-carboxylic acid] | 97% | 100% | 93% | 86% | – |
| C=C(C)[C@@H]1CC[C@]2(C(=O)N[C@@H]3C[C@H](c4nnc(CC(C)C)o4)C3(C)C)CC[C@]3(C)[C@H](CC[C@@H]4[C@@]5(C)CC[C@H](OC(=O)CC(C)(C)C(=O)O)C(C)(C)[C@@H]5CC[C@]43C)[C@@H]12 [Example 16, 4-((1R,3aS,5aR,5bR,7aR,9S,11aR,11bR,13aR,13bR)-3a-((1R,3S)-3-(5-isobutyl-1,3,4-oxadiazol-2-yl)-2,2-dimethylcyclobutylcarbamoyl)-5a,5b,8,8,11a-pentamethyl-1-(prop-1-en-2-yl)icosahydro-1H-cyclopenta[a]chrysen-9-yloxy)-2,2-dimethyl-4-oxobutanoic acid] | 100% | 100% | 81% | 79% | – |
| CC(C)(C)OC(=O)N1CCN(C(=O)[C@]23CC[C@@H](C4(C)CC4)[C@@H]2[C@H]2CC[C@@H]4[C@@]5(C)CC[C@H](OC(=O)[C@H]6C[C@@H](C(=O)O)C6(C)C)C(C)(C)[C@@H]5CC[C@@]4(C)[C@]2(C)CC3)CC1 [Example 38] | 68% | 99% | 85% | 83% | – |
| CC(C)(CC(=O)O[C@H]1CC[C@]2(C)[C@H]3CC[C@@H]4[C@H]5[C@H](C6(C)CC6)CC[C@]5(C(=O)N5CCC(OCCN6CCOCC6)CC5)CC[C@@]4(C)[C@]3(C)CC[C@H]2C1(C)C)C(=O)O [Example 47, 2,2-dimethyl-4-oxo-4-(((1R,3aS,5aR,5bR,7aR,9S,11aR,11bR,13aR,13bR)-5a,5b,8,8,11a-pentamethyl-1-(1-methylcyclopropyl)-3a-(4-(2-morpholinoethoxyl)piperidine-1-carbonyl)icosahydro-1H-cyclopenta[a]chrysen-9-yl)oxy)butanoic acid] | 100% | 99% | 100% | 96% | – |
| [2H]C([2H])([2H])C(N1CCN(C(=O)[C@]23CC[C@@H](C(=C)C)[C@@H]2[C@H]2CC[C@@H]4[C@@]5(C)CC[C@H](OC(=O)CC(C)(C)C(=O)O)C(C)(C)[C@@H]5CC[C@@]4(C)[C@]2(C)CC3)CC1)C([2H])([2H])[2H] [Example 7, 4-((1R,3aS,5aR,5bR,7aR,9S,11aR,11bR,13aR,13bR)-3a-(4-(1-methylethyl-2,2,2,1′,1′,1′-D6)piperazine-1-carbonyl)-5a,5b,8,8,11a-pentamethyl-1-(prop-1-en-2-yl)icosahydro-1H-cyclopenta[a]chrysen-9-yloxy)-2,2-dimethyl-4-oxobutanoic acid] | – | – | – | – | inhibition at 0.1 µM (HIV-1 strain 92HT599; [5]): 98%; inhibition at 1 µM (HIV-1 strain 92HT599; [5]): 97%; viability at 100 nM ([1]; 100 nM, MT2 cells, MTT, read-out: Cytotoxicity % viability 100 nM): 99%; viability at 1000 nM ([1]; 1000 nM, MT2 cells, MTT, read-out: Cytotoxicity % viability 1000 nM): 96% |
| C=C(C)[C@@H]1CC[C@]2(c3nnc(-c4ccccc4)o3)CC[C@]3(C)[C@H](CC[C@@H]4[C@@]5(C)CC[C@H](OC(=O)[C@H]6[C@@H](CC(=O)O)C6(C)C)C(C)(C)[C@@H]5CC[C@]43C)[C@@H]12 [Example 5, 2-((1R,3S)-2,2-dimethyl-3-(((1R,3aS,5aR,5bR,7aR,9S,11aR,11bR,13aR,13bR)-5a,5b,8,8,11a-pentamethyl-3a-(5-phenyl-1,3,4-oxadiazol-2-yl)-1-(prop-1-en-2-yl)icosa hydro-1H-cyclopenta[a]chrysen-9-yloxy)carbonyl)cyclopropyl)acetic acid] | 49% | 92% | 95% | 98% | – |
| C=C(C)[C@@H]1CC[C@]2(C(=O)N[C@@H]3C[C@H](C(=O)N4CCCCC4)C3(C)C)CC[C@]3(C)[C@H](CC[C@@H]4[C@@]5(C)CC[C@H](OC(=O)CC(C)(C)C(=O)OCOC)C(C)(C)[C@@H]5CC[C@]43C)[C@@H]12 [Example 9, 4-(1R,3aS,5aR,5bR,7aR,9S,11aR,11bR,13aR,13bR)-3a-((1R,3S)-2,2-dimethyl-3-(piperidine-1-carbonyl)cyclobutylcarbamoyl)-5a,5b,8,8,11a-pentamethyl-1-(prop-1-en-2-yl)icosahydro-1H-cyclopenta[a]chrysen-9-yl 1-methoxymethyl 2,2-dimethylsuccinate] | 64% | 99% | 82% | 88% | – |
